# In US20210292710A1, “METHOD FOR ENHANCING IMMUNE FUNCTION OF IMMUNE CELL AND IMMUNE CELL LINE PRODUCED USING THE SAME” (INDUSTRY-ACADEMIC COOPERATION FOUNDATION, YONSEI UNIVERSITY, priority 2020, published 2021):
# System: GLUT1
# Test: GLUT1 expression in T cell based on type of PI3K inhibitor
# Source text: More specifically, referring to (a) of FIG. 12, the results of GLUT1 expression according to the type of PI3K inhibitor in the helper T cell are shown. In this connection, the PI3K inhibitor may include BKM 120 that may inhibit all subtypes, CAL-101 that may inhibit only p110δ, IPI-145 capable of inhibiting p110γ and P110δ, BYLT719 capable of inhibiting only p110α, and TGX-211 capable of inhibiting only p110β.
# Referring to (b) of FIG. 12, the results of GLUT1 expression according to the type of PI3K inhibitor in cytotoxic T cells are shown.
compound,measurement,setting,value
"CC[C@H](Nc1ncnc2[nH]cnc12)c1nc2cccc(F)c2c(=O)n1-c1ccccc1 [CAL-101, idelalisib]",GLUT1 expression level versus BYLT719 and TGX-211 inhibitors,cytotoxic T cells,higher GLUT1 expression levels
same,GLUT1 expression level versus BYLT719 and TGX-211 inhibitors,helper T cell,higher GLUT1 expression levels
